Consider 2 compounds from ChEMBL document CHEMBL1201862, “PubChem BioAssay data set” (2004).

Active and inactive are the calls of the source.

Test [1] concerns the target T1, Small ubiquitin-related modifier 1 (Homo sapiens, UniProt P63165). The test is described as follows: inhibitors of SUMO1 partner interactions, dose response, biochemical, FRET (AID 624383). In kind it is functional. As to conditions: read-out: IC50_Mean.
For test [2], the target named is T1, Small ubiquitin-related modifier 1. The test is described as follows: inhibitors of SUMO1 peptide binding, dose response, biochemical, fluorescence polarization, uHTS hits (AID 624382). In kind it is functional. The following applies: read-out: IC50_Mean.
A further test deals with T2, Estrogen receptor (Homo sapiens, UniProt P03372).
T2 sequence (P03372 whole entry): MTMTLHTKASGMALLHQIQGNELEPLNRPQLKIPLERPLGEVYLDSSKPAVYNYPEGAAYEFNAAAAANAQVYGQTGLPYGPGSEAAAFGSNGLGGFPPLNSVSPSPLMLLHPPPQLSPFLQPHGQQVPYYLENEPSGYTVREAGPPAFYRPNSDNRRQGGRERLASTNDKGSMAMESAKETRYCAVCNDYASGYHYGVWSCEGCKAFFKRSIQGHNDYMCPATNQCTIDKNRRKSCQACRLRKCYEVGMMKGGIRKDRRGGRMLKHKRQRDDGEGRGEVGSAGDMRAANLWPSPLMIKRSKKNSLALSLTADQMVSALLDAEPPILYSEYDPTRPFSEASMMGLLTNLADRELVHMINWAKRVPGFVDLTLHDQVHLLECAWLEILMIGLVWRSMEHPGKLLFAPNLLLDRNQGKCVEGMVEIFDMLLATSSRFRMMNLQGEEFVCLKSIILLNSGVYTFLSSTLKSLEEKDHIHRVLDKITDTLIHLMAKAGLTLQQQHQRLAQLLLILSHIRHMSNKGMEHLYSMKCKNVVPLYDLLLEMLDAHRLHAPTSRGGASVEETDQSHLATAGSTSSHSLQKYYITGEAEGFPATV

Test [3] in a line: cytotoxicity toward HT-29 cells – cell-based, CellTiter-Glo luminescence, IC50, dose response (AID 1117330). In kind it is functional. A general note: In ATP-based viability assays light output follows the ATP content of the culture.
The nature of test [4]: CellTiter-Glo luminescent dose response of DLD-1 viability loss (AID 1117352). In kind it is functional.
In test [5] the test system is BJ. Kind of test: cytotoxicity toward BJ-TERT fibroblasts, dose response, cell-based, RAS-independent, luminescence (AID 1933). In kind it is functional. As to conditions: Homo sapiens.
Test [6] relates to BJ. Kind of test: cytotoxicity toward BJ-TERT-LT-ST fibroblasts, dose response, cell-based, RAS-independent, luminescence (AID 1935).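 Further: BJ fibroblasts immortalized with TERT plus LT and ST oncogenes.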 The following applies: Homo sapiens. In kind it is functional.
The test system of test [7] is BJ. Kind of test: cells. In kind it is functional, cell-based. The following applies: Homo sapiens.
Test [8] is described as follows: HEK293 cell cytotoxicity, dose response, cytotoxicity control, plate reader, cherry-picked samples (AID 743446). Format: functional, cell-based.
Test [9] in a line: cytotoxicity toward DRD oncogenic fibroblasts, dose response, cell-based, non-viral oncogenic, luminescence (AID 1934). Format: functional. As to conditions: Homo sapiens.
The nature of test [10]: NIH-3T3 fibroblast cytotoxicity, dose response, cytotoxicity control, cell-based, fluorescence, Alamar Blue, secondary assay (AID 2327).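 Further: NIH-3T3 mouse fibroblasts cultured with fluconazole at 8 µg/mL.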 Format: functional.
Test [11] can be described thus: C. albicans growth with fluconazole, confirmation, fluorescence, retest (AID 2467). Format: functional, cell-based.
The nature of test [12]: LGR2 antagonists, dose response, cell-based, HEK293, CRE-luciferase reporter, cherry pick, set 2 (AID 743343).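 Further: transfected cells were stimulated with diluted bursicon conditioned medium after compound addition.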 Format: functional. On the technique in general: A reporter such as luciferase makes a cellular process visible.
Test [13] concerns the target Photoreceptor-specific nuclear receptor (Homo sapiens, UniProt Q9Y5X4). In kind it is functional, cell-based.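 Further: CHO-S cells with Gal4-NCOR and VP16-NR2E3 two-hybrid luciferase reporter.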
Test [14] is described as follows: HeLa 4N DNA content increase, dose response, cell-based, IC50 (AID 1117351). Format: functional.
The target in test [15] is T3, Replicative DNA helicase DnaB (Mycobacterium tuberculosis, UniProt P9WMR3).
T3 sequence (P9WMR3 whole entry): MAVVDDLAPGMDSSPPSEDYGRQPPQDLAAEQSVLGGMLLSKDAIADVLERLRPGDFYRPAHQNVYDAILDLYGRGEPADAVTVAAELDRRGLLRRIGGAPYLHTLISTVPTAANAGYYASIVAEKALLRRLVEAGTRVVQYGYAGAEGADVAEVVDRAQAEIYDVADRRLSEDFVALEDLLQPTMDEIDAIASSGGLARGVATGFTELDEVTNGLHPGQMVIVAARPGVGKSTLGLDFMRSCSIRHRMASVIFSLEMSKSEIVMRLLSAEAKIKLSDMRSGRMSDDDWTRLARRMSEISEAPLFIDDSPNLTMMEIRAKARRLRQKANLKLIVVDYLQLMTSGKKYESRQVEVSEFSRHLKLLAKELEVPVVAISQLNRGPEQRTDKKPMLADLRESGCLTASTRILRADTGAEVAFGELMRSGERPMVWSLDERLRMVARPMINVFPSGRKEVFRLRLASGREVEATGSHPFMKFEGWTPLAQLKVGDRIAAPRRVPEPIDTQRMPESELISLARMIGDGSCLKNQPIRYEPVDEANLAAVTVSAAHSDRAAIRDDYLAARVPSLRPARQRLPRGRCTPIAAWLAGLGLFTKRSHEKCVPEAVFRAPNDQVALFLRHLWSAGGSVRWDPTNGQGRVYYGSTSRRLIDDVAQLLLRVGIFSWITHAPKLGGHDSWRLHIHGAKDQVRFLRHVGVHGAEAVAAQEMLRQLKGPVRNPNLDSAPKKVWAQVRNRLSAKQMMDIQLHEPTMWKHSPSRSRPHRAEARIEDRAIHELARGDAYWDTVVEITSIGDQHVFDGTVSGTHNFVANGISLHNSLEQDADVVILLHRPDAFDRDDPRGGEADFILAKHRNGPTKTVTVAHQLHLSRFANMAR
The test is described as follows: DnaB intein splicing inhibitors, dose response, biochemical, cell-free fluorescence (AID 449749). In kind it is functional.

For the next test, the target named is Nonstructural protein 1 (Influenza A virus, UniProt Q194T2). Format: functional, Influenza A virus (A/California/07/2009(H1N1)).
A short description of test [16]: THP-1 cell cytotoxicity, dose response, cytotoxicity control for Vif-APOBEC3G degradation inhibitor project, THP-1 cells (AID 1117359). In kind it is functional. The following applies: Human immunodeficiency virus 1, THP-1.
The next test addresses T4, Caspase-6 (Homo sapiens, UniProt P55212).
T4 sequence (P55212 whole entry): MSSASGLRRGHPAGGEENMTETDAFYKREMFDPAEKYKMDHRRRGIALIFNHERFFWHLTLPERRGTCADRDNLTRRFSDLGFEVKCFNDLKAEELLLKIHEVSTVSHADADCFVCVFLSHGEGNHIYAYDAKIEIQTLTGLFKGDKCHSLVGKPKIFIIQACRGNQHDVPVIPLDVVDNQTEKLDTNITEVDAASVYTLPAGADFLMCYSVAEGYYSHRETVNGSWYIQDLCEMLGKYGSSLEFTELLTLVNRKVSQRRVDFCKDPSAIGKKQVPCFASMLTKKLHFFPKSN
The test is described as follows: human caspase-6 inhibitors, dose response, biochemical, VEID-R110 fluorescence, cherry-pick (AID 720632).

The nature of test [17]: MC4R antagonists, dose response, counter-screen for LGR2 antagonist project, cell-based, plate reader, cherry pick (AID 743444).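 Further: transfected HEK 293 cells stimulated with alpha-MSH peptide; potency of inhibitors of the alpha-MSH evoked signal.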 In kind it is functional.
Test [18] in a line: cytotoxicity toward Colo320 cells – cell-based, CellTiter-Glo luminescence, IC50, dose response (AID 1117334). As to conditions: COLO 320. In kind it is functional.
Test [19] is described as follows: SNU-C1 cell viability reduction, dose response, CellTiter-Glo luminescence (AID 1117323). In kind it is functional, cell-based.
Test [20] can be described thus: Concentration-dependent survival of SW480 colon cancer line, luminescence detection with CellTiter-Glo, half-maximal inhibitory concentration (AID 1117338). Format: functional.
Test [21] can be described thus: HCT116 cell viability decrease, GSK3B pretreatment – CellTiter-Glo, IC50, dose response (AID 1117339). Format: functional. The following applies: HCT-116.
Test [22] can be described thus: HeLa 2N DNA content increase, dose response, cell-based, IC50 (AID 1117349). Format: functional.
The target in another test is T5, Protein RecA (Mycobacterium tuberculosis, UniProt P9WHJ3).
T5 sequence (P9WHJ3 whole entry): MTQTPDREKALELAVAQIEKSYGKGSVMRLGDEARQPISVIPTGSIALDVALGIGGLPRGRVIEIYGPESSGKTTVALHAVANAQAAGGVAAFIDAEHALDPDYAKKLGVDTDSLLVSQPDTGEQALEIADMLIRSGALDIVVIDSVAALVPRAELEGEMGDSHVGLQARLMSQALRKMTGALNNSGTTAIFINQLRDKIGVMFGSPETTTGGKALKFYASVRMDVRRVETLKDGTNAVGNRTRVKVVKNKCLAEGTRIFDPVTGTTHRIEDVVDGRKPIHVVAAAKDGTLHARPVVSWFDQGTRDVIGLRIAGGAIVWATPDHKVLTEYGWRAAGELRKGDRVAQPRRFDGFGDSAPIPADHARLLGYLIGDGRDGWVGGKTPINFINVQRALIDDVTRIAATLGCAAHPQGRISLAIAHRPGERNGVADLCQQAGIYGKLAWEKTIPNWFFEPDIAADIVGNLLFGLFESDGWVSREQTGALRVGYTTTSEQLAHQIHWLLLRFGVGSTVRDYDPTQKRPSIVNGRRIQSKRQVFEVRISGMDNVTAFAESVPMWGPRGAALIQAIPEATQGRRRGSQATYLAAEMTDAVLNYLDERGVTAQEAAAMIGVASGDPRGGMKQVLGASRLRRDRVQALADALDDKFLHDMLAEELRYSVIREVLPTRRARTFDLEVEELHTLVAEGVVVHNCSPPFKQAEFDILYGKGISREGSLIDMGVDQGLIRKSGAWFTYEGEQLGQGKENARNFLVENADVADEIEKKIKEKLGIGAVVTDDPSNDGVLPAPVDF
The test is described as follows: Fluorescence Cell-Free Homogeneous Dose Retest to Identify Inhibitors of RecA-Intein Splicing Activity. [Related pubchem assays (depositor defined):AID2097, AID2223, AID489010, AID492950]. Format: functional.

The target in test [23] is Heat shock protein HSP 90-alpha (Homo sapiens, UniProt P07900). In kind it is functional, organism-based.
Test [24] can be described thus: cytotoxicity toward HCT116 cells – cell-based, CellTiter-Glo luminescence, IC50, dose response (AID 1117332). In kind it is functional. As to conditions: HCT-116.
Test [25] can be described thus: A549 cell cytotoxicity, dose response, cytotoxicity control, plate reader, cherry-pick, antagonist series (AID 743412). In kind it is functional, cell-based.
A short description of test [26]: HepG2 cell cytotoxicity, dose response, cytotoxicity control, plate reader, cherry-pick, antagonist series (AID 743416). In kind it is functional, cell-based.
The nature of test [27]: RKO cell viability reduction, dose response, CellTiter-Glo luminescence (AID 1117322). In kind it is functional.

T1 sequence (P63165 whole entry): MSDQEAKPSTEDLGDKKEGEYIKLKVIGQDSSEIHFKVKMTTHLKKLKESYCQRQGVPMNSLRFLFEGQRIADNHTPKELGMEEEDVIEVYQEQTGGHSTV
Chain of Photoreceptor-specific nuclear receptor (Q9Y5X4 whole entry, the tested form may be a part): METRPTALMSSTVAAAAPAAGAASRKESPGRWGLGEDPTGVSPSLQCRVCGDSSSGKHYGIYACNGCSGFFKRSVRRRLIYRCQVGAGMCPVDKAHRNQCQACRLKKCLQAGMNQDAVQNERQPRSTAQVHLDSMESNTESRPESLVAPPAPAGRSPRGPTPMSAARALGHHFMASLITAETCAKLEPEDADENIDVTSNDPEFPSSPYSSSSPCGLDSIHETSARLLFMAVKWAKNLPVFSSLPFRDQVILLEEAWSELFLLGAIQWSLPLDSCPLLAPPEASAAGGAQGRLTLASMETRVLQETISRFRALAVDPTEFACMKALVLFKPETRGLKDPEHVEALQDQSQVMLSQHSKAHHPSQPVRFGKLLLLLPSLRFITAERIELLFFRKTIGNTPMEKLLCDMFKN
Chain of Nonstructural protein 1 (Q194T2 whole entry): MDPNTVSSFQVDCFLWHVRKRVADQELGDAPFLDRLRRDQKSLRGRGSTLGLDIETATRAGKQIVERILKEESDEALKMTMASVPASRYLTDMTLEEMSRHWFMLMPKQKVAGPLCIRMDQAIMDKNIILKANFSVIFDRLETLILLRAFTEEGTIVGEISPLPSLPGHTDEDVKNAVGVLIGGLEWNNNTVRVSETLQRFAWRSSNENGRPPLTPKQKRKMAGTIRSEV

For `Cc1ccc(-n2nnnc2SCC(=O)Nc2ccc3c(c2)COC3=O)cc1C`, the IC50 in [1] was 8.2 µM (active); in test [2] it was > 66.6 µM (inactive); on Estrogen receptor, 27.1 µM (active).
Take `O=[N+]([O-])c1ccc(O)c2ncccc12` [NITROXOLINE]: the IC50 in [3] is > 20 µM (inactive); in [4] it was 1.38 µM (active); in test [13], 8.96 µM (active); in test [14] it was > 10 µM (inactive); on Nonstructural protein 1 it was 4.72 µM (active); in test [18] it was 0.684 µM (active). The IC50 is > 20 µM (inactive) in test [19]; 0.605 µM (active) in test [20]; 0.375 µM (active) in test [21]; 1.7 µM (active) in test [22]; 0.921 µM (active) in test [24]; 0.71 µM (active) in [27]. Also, the half-maximal effective concentration (EC50) with BJ [5] was 9.44 µM (active); with BJ [6] it was 16.7 µM (inconclusive); with BJ [7] it was 28.8 µM (active); in test [9] it was 16.6 µM (active); in test [10], 9.52 µM (inconclusive); in test [11], 0.161 µM (active). In addition, on Protein RecA, the EC50 was 14.4 µM (active). Moreover, the half-maximal activity concentration (AC50) was 11.5 µM (active) in [8]; 54.9 µM (active) in [12]; 9.95 µM (active) in test [15]; 14.9 µM (active) at Caspase-6; 48.7 µM (active) in test [17]; 0.996 µM (active) in test [23]. Also, the concentration at half-maximal activity (AC50) was 12.1 µM (active) in test [25] and 9.7 µM (active) in test [26]. Further, the cytotoxic concentration (CC50) in [16] is 5.53 µM (active).

As a reminder, the EC50 is the concentration needed to bring the measured effect to its halfway point. By AC50 is commonly meant the concentration giving half of the maximal activity seen. As usually defined, the CC50 is the concentration giving 50% cytotoxicity.
